Experimental findings from US7704995B2 (Exelixis, Inc., priority 2003, dated 2010) are described below.

pIC50: −log10 of the molar value.

The term pIC50 denotes the IC50 on a negative log10 scale, so that one unit is a factor of ten.

One test addresses T1, Chk1 (Homo sapiens, UniProt O14757).
T1 construct: purchased Upstate Biotechnology
T1 sequence (O14757 1-476): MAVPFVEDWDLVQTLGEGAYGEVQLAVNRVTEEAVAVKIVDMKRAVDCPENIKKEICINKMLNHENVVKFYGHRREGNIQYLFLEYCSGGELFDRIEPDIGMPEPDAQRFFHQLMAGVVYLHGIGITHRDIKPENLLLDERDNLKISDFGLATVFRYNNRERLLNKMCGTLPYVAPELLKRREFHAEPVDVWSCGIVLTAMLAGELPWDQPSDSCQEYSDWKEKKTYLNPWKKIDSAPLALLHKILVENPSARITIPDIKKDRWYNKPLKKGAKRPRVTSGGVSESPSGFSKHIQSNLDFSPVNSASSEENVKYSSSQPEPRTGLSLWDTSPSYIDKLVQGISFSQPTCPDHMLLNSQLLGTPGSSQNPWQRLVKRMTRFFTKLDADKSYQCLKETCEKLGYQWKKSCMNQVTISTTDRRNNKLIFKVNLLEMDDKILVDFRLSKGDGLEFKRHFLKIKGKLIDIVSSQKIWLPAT
In words: Chk1 kinase assay: incorporation of γ-33P ATP into immobilized myelin basic protein. The class given is biochemical. As to conditions: Table 11, Chk1 only; class symbols A-D; read-out: Chk1 IC50. In outline:
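Chk1 (10 nM) or Chk2 (20 nM) phosphorylated plate-immobilized myelin basic protein for 1 h at room temperature in Hepes pH 7.6 buffer with MgCl2, DTT, 1% DMSO, γ-33P ATP plus 10 μM (Chk1) or 30 μM (Chk2) unlabeled ATP. Bound radioactivity counted by scintillation; IC50 determined, Ki derivable from IC50.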
Turning to `Nc1ncc(-c2cccc(NC(=O)Cc3ccc(Cl)cc3Cl)c2)nc1C(=O)N[C@H]1CCCNC1` [Example 890, 3-amino-6-(3-{[(2,4-dichlorophenyl)acetyl]amino}phenyl)-N-[(3S)-piperidin-3-yl]pyrazine-2-carboxamide], the negative-log IC50 (pIC50) was > 7.30.

Consider `Nc1ncc(-c2cccc(C(=O)NCc3c(F)cccc3F)c2)nc1C(=O)N[C@H]1CCCCNC1` [Example 1022, 3-amino-N-[(3S)-azepan-3-yl]-6-[3-({[(2,6-difluorophenyl)methyl]amino}carbonyl)phenyl]pyrazine-2-carboxamide], for which the pIC50 is > 7.30.

Take `Nc1ncc(-c2cccc(C(=O)NC(Cc3ccccc3)c3ccccc3)c2)nc1C(=O)N[C@H]1CCCNC1` (stereo partly drawn) [Example 866, 3-amino-6-(3-{[(1,2-diphenylethyl)amino]carbonyl}phenyl)-N-[(3S)-piperidin-3-yl]pyrazine-2-carboxamide]: the negative logarithm of the IC50 (pIC50) was > 7.30.

Regarding `Nc1ncc(-c2cccc(C(=O)NCc3ccc(Br)cc3)c2)nc1C(=O)N[C@H]1CCCNC1` [Example 870, 3-amino-6-[3-({[(4-bromophenyl)methyl]amino}carbonyl)phenyl]-N-[(3S)-piperidin-3-yl]pyrazine-2-carboxamide], the pIC50 is > 7.30.

`COc1ccc2c(CC(=O)Nc3cccc(-c4cnc(N)c(C(=O)N[C@H]5CCCNC5)n4)c3)coc2c1` [Example 911, 3-amino-6-[3-({[6-(methyloxy)-1-benzofuran-3-yl]acetyl}amino)phenyl]-N-[(3S)-piperidin-3-yl]pyrazine-2-carboxamide]: the negative logarithm of the IC50 (pIC50) is > 7.30.

As for `Nc1ncc(-c2cccc(CNC(=O)Nc3ccccc3OC(F)(F)F)c2)nc1C(=O)N[C@H]1CCCNC1` [Example 919, 3-amino-N-[(3S)-piperidin-3-yl]-6-[3-({[({2-[(trifluoromethyl)oxy]phenyl}amino)carbonyl]amino}methyl)phenyl]pyrazine-2-carboxamide], the pIC50 is 6.00 to 7.30.

The same test, now with this note: Table 11; Chk1 only; read-out: Chk1 IC50.
Regarding `CC(C)(C)OC(=O)N1CCC(NC(=O)c2nc(-c3cccc(C(=O)NCc4ccccc4)c3)cnc2N)C1` (stereo not drawn) [Example 567, 1,1-dimethylethyl 3-({[3-amino-6-(3-{[(phenylmethyl)amino]carbonyl}phenyl)pyrazin-2-yl]carbonyl}amino)pyrrolidine-1-carboxylate], the pIC50 was ≤ 5.00.

Turning to `C/C(=N\Nc1ccccc1)c1nc(-c2cccc(C(=O)NCc3ccccc3)c2)cnc1N` [Example 641, 3-{5-amino-6-[(1E)-N-phenylethanehydrazonoyl]pyrazin-2-yl}-N-(phenylmethyl)benzamide], the pIC50 is 5.00 to 6.00.

As for `Nc1ncc(-c2cccc(CN[C@H]3CCc4ccccc43)c2)nc1-c1nc(-c2ccccc2)n[nH]1` [Example 557, 5-(3-{[(1S)-2,3-dihydro-1H-inden-1-ylamino]methyl}phenyl)-3-(3-phenyl-1H-1,2,4-triazol-5-yl)pyrazin-2-amine], the negative logarithm of the IC50 (pIC50) was > 7.30.

Consider `Nc1ncc(-c2cccc(C(=O)NCc3ccccc3)c2)nc1C(=O)NCCNS(=O)(=O)c1cccc2cccnc12` [Example 662, 3-amino-6-(3-{[(phenylmethyl)amino]carbonyl}phenyl)-N-{2-[(quinolin-8-ylsulfonyl)amino]ethyl}pyrazine-2-carboxamide], for which the pIC50 is ≤ 5.00.

For `CNC(=O)c1nc(-c2cc(C(=O)OC)cc(C(=O)OC)c2)cnc1N` [Example 763, dimethyl 5-{5-amino-6-[(methylamino)carbonyl]pyrazin-2-yl}benzene-1,3-dicarboxylate], the negative logarithm of the IC50 (pIC50) is 5.00 to 6.00.

On to `COC(=O)[C@@H]1CCCN1C(=O)c1nc(-c2cccc(C(=O)NCc3ccccc3)c2)cnc1N` [Example 590, methyl 1-{[3-amino-6-(3-{[(phenylmethyl)amino]carbonyl}phenyl)pyrazin-2-yl]carbonyl}-L-prolinate], for which the negative-log IC50 (pIC50) is ≤ 5.00.

As to `C/C(=N\Nc1ccc(C(C)C)cc1)c1nc(-c2cccc(C(=O)NCc3ccccc3)c2)cnc1N` [Example 600, 3-(5-amino-6-{(1E)-N-[4-(1-methylethyl)phenyl]ethanehydrazonoyl}pyrazin-2-yl)-N-(phenylmethyl)benzamide], the negative logarithm of the IC50 (pIC50) was 5.00 to 6.00.

Consider `CCOC(=O)CN/N=C(\C)c1nc(-c2cccc(C(=O)NCc3ccccc3)c2)cnc1N` [Example 628, ethyl ((2E)-2-{1-[3-amino-6-(3-{[(phenylmethyl)amino]carbonyl}phenyl)pyrazin-2-yl]ethylidene}hydrazino)acetate], for which the pIC50 is ≤ 5.00.

Consider `CNC(=O)c1nc(-c2cccc(CN[C@H]3Cc4ccc(Br)cc4C3)c2)cnc1N` [Example 465, 3-amino-6-[3-({[(2S)-5-bromo-2,3-dihydro-1H-inden-2-yl]amino}methyl)phenyl]-N-methylpyrazine-2-carboxamide], for which the negative-log IC50 (pIC50) was > 7.30.

Still in this test, the particulars now being: read-out: Chk1 IC50.
For the compound `CNC(=O)c1nc(-c2cccc(C(=O)NCc3cccc(N)c3)c2)cnc1N` [Example 232, 3-amino-6-[3-({[(3-aminophenyl)methyl]amino}carbonyl)phenyl]-N-methylpyrazine-2-carboxamide], the pIC50 is 6.00 to 7.30.

On to `CNC(=O)c1nc(-c2cccc(CN[C@@H]3c4ccccc4C[C@@H]3O)c2)cnc1N` [Example 421, 3-amino-6-[3-({[(1R,2S)-2-hydroxy-2,3-dihydro-1H-inden-1-yl]amino}methyl)phenyl]-N-methylpyrazine-2-carboxamide], for which the negative logarithm of the IC50 (pIC50) is > 7.30.

As for `CNC(=O)c1nc(-c2cccc(C(=O)NCc3cc(C(F)(F)F)cc(C(F)(F)F)c3)c2)cnc1N` [Example 262, 3-amino-6-{3-[({[3,5-bis(trifluoromethyl)phenyl]methyl}amino)carbonyl]phenyl}-N-methylpyrazine-2-carboxamide], the pIC50 is 6.00 to 7.30.

For `CNC(=O)c1nc(-c2cccc(CNC(=O)c3cc(C(F)(F)F)ccc3Cl)c2)cnc1N` [Example 333, 3-amino-6-{3-[({[2-chloro-5-(trifluoromethyl)phenyl]carbonyl}amino)methyl]phenyl}-N-methylpyrazine-2-carboxamide], the negative logarithm of the IC50 (pIC50) is 6.00 to 7.30.

For `CNC(=O)c1nc(-c2cccc(C(=O)NCc3c(Cl)ccc(C)c3F)c2)cnc1N` [Example 301, 3-amino-6-[3-({[(6-chloro-2-fluoro-3-methylphenyl)methyl]amino}carbonyl)phenyl]-N-methylpyrazine-2-carboxamide], the pIC50 was 6.00 to 7.30.

For `CNC(=O)c1nc(-c2cccc(C(=O)NCc3ccc(F)cc3Cl)c2)cnc1N` [Example 370, 3-amino-6-[3-({[(2-chloro-4-fluorophenyl)methyl]amino}carbonyl)phenyl]-N-methylpyrazine-2-carboxamide], the pIC50 is 6.00 to 7.30.

Take `CNC(=O)c1nc(-c2cncc(C(=O)NCc3c(F)cccc3F)c2)cnc1N` [Example 400, 3-amino-6-[5-({[(2,6-difluorophenyl)methyl]amino}carbonyl)pyridin-3-yl]-N-methylpyrazine-2-carboxamide]: the negative logarithm of the IC50 (pIC50) was 6.00 to 7.30.

Take `CNC(=O)c1nc(-c2cccc(CNC3Cc4ccccc4C3)c2)cnc1N` [Example 415, 3-amino-6-{3-[(2,3-dihydro-1H-inden-2-ylamino)methyl]phenyl}-N-methylpyrazine-2-carboxamide]: the negative logarithm of the IC50 (pIC50) was > 7.30.

With `CNC(=O)c1nc(-c2cncc(C(=O)NCc3ccc4c(c3)OCCO4)c2)cnc1N` [Example 411, 3-amino-6-(5-{[(2,3-dihydro-1,4-benzodioxin-6-ylmethyl)amino]carbonyl}pyridin-3-yl)-N-methylpyrazine-2-carboxamide], the negative logarithm of the IC50 (pIC50) is 6.00 to 7.30.
